Measurements taken from paper PMC11784115, “Trypsin-instructed bioactive peptide nanodrugs with cascading transformations to improve chemotherapy against colon cancer” (Journal of Nanobiotechnology, 2025).
Like-named read-outs stand apart in the source and are kept apart here. Where a SMILES comes first, the peptide text is derived from it. The star is where a group is joined. Acetyl(2-naphthyl) = O=C(Cc1ccc2ccccc2c1)*

What was measured:
HT29-xenografted tumor = experiment: In vivo antitumor efficacy, HT29 xenograft; set-up: species or system BALB/C nude mice; settings: for percentage of Ki67-positive signals in tumor tissues: tumor tissue, day 21
Description: HT29 tumor-bearing mice model was developed to study the antitumor effect in vivo of 1-Pept/Dox NFs. HT29 cell suspension (100 µL, 5.0 × 10^6 cells) was mixed with an equal volume of Matrigel. Then, the mixtures were subcutaneously injected into the right back of male BALB/C nude mice (6–8 weeks, Jinan Pengyue Experimental Animal Breeding Co., Itd, China). […] (1) PBS; (2) 1-Pept NFs; […] The dosage was fixed as 13 µmol/kg for Dox moiety and 130 µmol/kg for 1-Pept. The tumor size and body weight of the mice were determined every three days. The tumor size was obtained using the equation V = L×W^2/2, where L and W denote the length and width, respectively. At the end of the day 21st, the tumor tissues were collected for HE staining to observe morphological changes in tumor cells. The actin and tubulin staining of the cell sections was also conducted to study the cytoskeleton changes after drug treatment. The Ki-67 staining was conducted to observe the proliferative status of tumor cells. Meanwhile, the signals of TUNEL and expressions of activated caspase-3 were also measured by immunohistochemical staining.

rabbit red blood cells = system: rabbit red blood cells
Description: To begin with, the biocompatibility of 1-Pept/Dox NFs was explored from hematological compatibility and histocompatibility. The hemolysis ratio of 1-Pept/Dox NFs was evaluated based on rabbit red blood cells (RBCs). […] Then, the samples were first centrifuged to obtain the supernatant and measured the absorbance at 540 nm. Deionized water served as a positive group and 0.9% of the NaCl solution was utilized as a negative group. The hemolysis ratio of samples was obtained according to the hemolysis rate equation.

HT29 cells = format: cell-based, human
Description: HT29 cells were incubated in a 96-well microplate and cultured with 1-Pept/Dox NFs for 48 h. The concentrations of Dox were between 12.5 and 0.391 µM, and 1-Pept were between 125 and 3.91 µM. Then, a fixed volume of 20 µL MTT (5 mg/mL) was added to the wells for co-incubation. After 4 h, the generated formazan could be found. After dissolving in DMSO, the absorbance values were recorded at 490 nm utilizing a microplate reader (Multiskan FC). By comparing the absorbance of the samples and the controls, the cell’s survival rates were calculated. The IC50 values were obtained by Origin 8.0 software. Simultaneously, the MTT assays for NCM460, SW620, SW480, and HCT-15 were performed using the aforementioned procedures.

[1] = Minimum gelation concentration (MGC) by vial inversion; format: physicochemical; settings: PBS, neutral pH, Tps 5 U/mL or Dox 0.1 eq where present
Description: The enzyme-directed assembly behavior of 1-Pept was subsequently investigated. 1-Pept was dissolved in PBS solution, and the pH was adjusted to neutral condition. The formation of 1-Pept nanofibrillar hydrogels was monitored via a vial inversion method. 1-Pept/Tps NFs were obtained after mixing Tps (5 U/mL) with 1-Pept solution. The MGC of 1-Pept NFs and 1-Pept/Tps NFs could be determined when the samples could not flow.
1-Pept (1.0 wt%) was dissolved in PBS solution and mixed with 0.1 equivalents of Dox to obtain 1-Pept/Dox NFs (1.0 wt%/0.1 eq), and the solutions were kept at 25 °C to obtain 1-Pept/Dox NFs. The MGC, CAC, microscopic morphology, CD analysis, and viscoelasticity were tested according to the above procedures. The intermolecular force between 1-Pept and Dox was examined with fluorescent spectroscopy. Simply, Dox solution (20 µg/mL) was incubated with different concentrations (125, 62.5, 31.3, 15.6, 7.81, and 3.90 µg/mL) of 1-Pept solutions, and the fluorescent spectrum of the sample was recorded at a fixed excitation wavelength of […]. Ulteriorly, the electrostatic interactions between 1-Pept and Dox were explored by adding sodium chloride solution (2 M).

trypsin (Tps) = experiment: in vitro; settings: isolated enzyme
Description: 1-Pept (1 mg/mL) was dissolved in PBS solution, and the pH was modulated to a neutral condition. After that, Tps (1 U/mL) was added to the solution to trigger the conversion of 1-Pept (NapFFGYKCD) into Pept (NapFFGYK). At fixed time points, 50 µL 1-Pept solution was taken out and mixed with 150 µL methanol to obtain the mixed solution. Finally, the mixed solution was analyzed with HPLC-MS to investigate the conversion rate.

[2] = In vitro release from 1-Pept/Dox NFs (HPLC), Ritger-Peppas fitting; format: physicochemical
Description: The in vitro drug release profile of 1-Pept/Dox NFs was conducted in a constant temperature vibrator (40 rpm, 37 °C). 1-Pept/Dox NFs (200 µL, 1.0 wt%/0.1 eq) were prepared and incubated with 200 µL PBS buffer (pH = 7.4, 6.5 and 5.5). At particular time points, 200 µL liquid supernatant was sucked out and further analyzed by HPLC. Simultaneously, 200 µL fresh PBS was added to maintain a fixed volume. Free Dox solutions were used as controls.

[3] = free Dox solution, 12-h release

SMILES	percentage of Ki67-positive signals in tumor tissues (HT29-xenografted tumor) [%]	hemolysis rate (rabbit red blood cells; red cells of rabbit, 1 h, 1.0 wt%) [%]	IC50 (HT29 cells; 48 h) [µM]	minimum gelation concentration (MGC) [1] [wt%]	metabolised at 72 h, 1 mg/mL (trypsin (Tps)) [%]	tumor volume growth rate on the 21st day (HT29-xenografted tumor; peritumoral s.c. injection days 1, 4, 7, 10, 13 µmol/kg Dox, 130 µmol/kg 1-Pept)	hemolysis rate (rabbit red blood cells) [%]	IC50 (HT29 cells; HT29, 48 h, MTT, read-out: IC50 value of Dox) [µM]	cumulative release of Dox at 12 h ([2]; free Dox solution control, PBS, 37 °C, 40 rpm, HPLC) [%]	Ritger-Peppas exponential factor n, Dox release [2, 3]	Ritger-Peppas k, Dox release [2, 3]
NCCCC[C@H](NC(=O)[C@H](Cc1ccc(O)cc1)NC(=O)CNC(=O)[C@H](Cc1ccccc1)NC(=O)[C@H](Cc1ccccc1)NC(=O)Cc1ccc2ccccc2c1)C(=O)N[C@@H](CS)C(=O)N[C@@H](CC(=O)O)C(=O)O [1-Pept, 2-Naphthylacetic acid-Phe-Phe-Gly-Tyr-Lys-Cys-Asp] ({Acetyl(2-naphthyl)}-FFGYKCD-OH)	60	1.1	134	0.8	> 90	–	–	–	–	–	–
COc1cccc2c1C(=O)c1c(O)c3c(c(O)c1C2=O)C[C@@](O)(C(=O)CO)C[C@@H]3O[C@H]1C[C@H](N)[C@H](O)[C@H](C)O1 [Dox, Doxorubicin]	45	–	–	–	–	3.3	2.8	2.8	51	0.35	0.21
